The values below come from article PMC11434749, “In Vitro Interaction of Binuclear Copper Complexes with Liver Drug-Metabolizing Cytochromes P450” (Pharmaceuticals, 2024).

The nature of this series: Stability on recrystallization from water and methanol. Format: physicochemical. The note with it: recrystallized from water and from methanol, crystals of the same composition. The protocol: [Cu2(μ-fu)(pmdien)2(H2O)2](ClO4)2 (complex No. 5) and [Cu2(μ-dtdp)(pmdien)2(H2O)2](ClO4)2 (complex No. 6) were prepared according to a published procedure. […] The structure of complex No. 6 was presented by us in [20]. The structure of complex No. 5 was measured again (the structure was previously solved with worse parameters by Mautner), and our new single crystal data were deposited under CCDC 2378750. Tables with crystal data, structure refinement, and selected bond lengths and angles are presented in ESI (Tables S1–S3). The molecular structures are depicted in Figure 1. It can be seen that the binuclear copper complexes differ in the dicarboxylato bridge. The coordination number on copper is five. All the copper centers are coordinated by three nitrogen atoms of tridentate chelating ligand pmdien and two oxygen atoms. One oxygen is from a water molecule, and the second one is from a monodentately bonding carboxylato group. The fumarato bridge contains a double bond, whereas the dithiodipropionato bridge is longer, with two sulfur atoms. Neither the double bond nor the sulfur atoms are involved in coordination with central atoms. Two perchlorate anions in each molecule are not involved in coordination. There are only hydrogen bonds among the oxygen atoms of the perchlorate group and hydrogens of the coordination cation.

Molecules are shown by their SMILES.

With `CN(C)CCN(C)CCN(C)C.CN(C)CCN(C)CCN(C)C.O.O.O=C([O-])/C=C/C(=O)[O-].[Cu+2].[Cu+2].[O-][Cl+3]([O-])([O-])[O-].[O-][Cl+3]([O-])([O-])[O-]` [Complex No. 5, [Cu2(μ-fu)(pmdien)2(H2O)2](ClO4)2], the “stability of the complex in solvents” value is “very good stability”.
